# Experimental data: patent publication US8404677B2, “Kinase inhibitors” (Genosco, priority 2009, dated 2013)
# Counter-ions that a name gives are not always drawn.
# Assays:
# truncated human RET = target: T1, truncated human RET (Homo sapiens, UniProt P07949); test: Inhibition of enzymatic kinase activity (LANCE Ulight); assay type: biochemical
# T1 construct: truncated human FAK, RET, FLT3, JAK2, and LRRK2 (CARNA BIOSCIENCES™); purchased Carna Biosciences
# T1 sequence (P07949 658-1114 limits assumed): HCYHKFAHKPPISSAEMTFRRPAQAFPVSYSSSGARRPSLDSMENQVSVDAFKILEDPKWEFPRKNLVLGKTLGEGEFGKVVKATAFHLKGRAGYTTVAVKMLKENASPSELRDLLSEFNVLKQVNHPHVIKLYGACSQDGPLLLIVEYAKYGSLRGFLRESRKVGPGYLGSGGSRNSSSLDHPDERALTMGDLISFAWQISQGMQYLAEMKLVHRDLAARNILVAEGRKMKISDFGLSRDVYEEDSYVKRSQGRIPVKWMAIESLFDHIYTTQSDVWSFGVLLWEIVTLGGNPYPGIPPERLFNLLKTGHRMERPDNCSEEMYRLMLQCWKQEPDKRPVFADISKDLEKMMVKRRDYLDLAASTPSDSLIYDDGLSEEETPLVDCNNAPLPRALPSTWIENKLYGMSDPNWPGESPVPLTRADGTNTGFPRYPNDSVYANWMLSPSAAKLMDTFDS
# Method: (§1) Inhibition of Enzymatic SYK, ZAP70, PYK2, FAK, PIM1, RET, FLT3, JAK2 and LRRK2 Kinase Activity
# (§2) Compounds of the invention were initially diluted to 10 mM in 100% DMSO (CALBIOCHEM™) for storage and made into kinase buffer solution to create a compound concentration ranging from 1 uM and 10 uM. Serial dilutions of compounds of the invention were dispensed into a 96-well plate (GREINER BIOSCIENCES™) at 6 μL each. Purified full-length human SYK, ZAP70, PIM1, PYK2 and truncated human FAK, RET, FLT3, JAK2, and LRRK2 (CARNA BIOSCIENCES™) were diluted in kinase buffer and added to the compound solutions and pre-incubated for 30 minutes at room temperature (1 hour for PYK2). […] The reaction mixture was incubated for 1 hour (2 hours for PYK2). Following the incubation, the stop solution made with EDTA, water, and Lance detection buffer ([…]™) was added (12 μL each) to stop phosphorylation.
# truncated human FLT3 = target: T2, truncated human FLT3 (Homo sapiens, UniProt P36888); test: as above; assay type: biochemical
# T2 construct: truncated human FAK, RET, FLT3, JAK2, and LRRK2 (CARNA BIOSCIENCES™); purchased Carna Biosciences
# T2 sequence (P36888 564-993 limits assumed): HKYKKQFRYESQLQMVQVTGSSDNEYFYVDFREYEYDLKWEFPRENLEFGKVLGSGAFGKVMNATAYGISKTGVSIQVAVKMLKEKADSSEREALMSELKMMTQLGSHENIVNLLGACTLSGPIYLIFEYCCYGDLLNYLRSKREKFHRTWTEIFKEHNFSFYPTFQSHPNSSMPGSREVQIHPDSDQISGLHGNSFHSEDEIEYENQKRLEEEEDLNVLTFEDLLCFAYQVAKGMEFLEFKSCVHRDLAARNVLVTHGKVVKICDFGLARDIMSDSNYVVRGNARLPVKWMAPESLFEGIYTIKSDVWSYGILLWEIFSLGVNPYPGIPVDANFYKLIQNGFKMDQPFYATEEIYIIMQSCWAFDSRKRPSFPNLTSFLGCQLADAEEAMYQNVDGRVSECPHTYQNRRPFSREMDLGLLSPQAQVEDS
# Method: as §1, §2
# truncated human JAK2 = target: T3, truncated human JAK2 (Homo sapiens, UniProt O60674); test: as above; assay type: biochemical
# T3 construct: truncated human FAK, RET, FLT3, JAK2, and LRRK2 (CARNA BIOSCIENCES™); purchased Carna Biosciences
# Method: as §1, §2
# [1] = test system: MV4-11 cells expressing human FLT3-ITD; test: Cell viability assay: FLT3-ITD-positive cells; assay type: cell-based; settings: for inhibition level compared with Vandetinib and Sunitinib: FLT3 ITD induced cancer cell line; for IC50: Homo sapiens, 72-hour incubation, read-out: MV-4-11 cell viability IC50
# Method: Compounds of the invention were tested for cell viability effect on MV4-11 cells. For cell viability assay, MV4-11 cells expressing human FLT3-ITD were obtained from the American Type Culture Collection (ATCC, Manassas, Va.). This cell line was maintained with an Roswell Park Memorial Institute (RPMI) medium (HyClone™) containing 10 bovine calf serum (BCS; Hyclone™) supplemented iron. […] CellTiter Aqueous assay (Promega™) was also performed in parallel as an orthogonal assay. IC50 values were calculated using nonlinear regression and defined as the concentration needed for a 50 reduction in luminescence or absorbance treated versus untreated control cells (Prism™ Software).
# MTC-TT = test: Cell viability assay: RET inhibition; assay type: cell-based, human; settings: for IC50: Homo sapiens, 48 h, two days after drug treatment; for inhibition level compared with Vandetinib and Sunitinib: RET induced cancer cell line
# Method: In order to address RET dependent cell viability, the medullary thyroid carcinoma cell line, MTC-TT representing MEN2A was utilized to test compounds of the invention. MTC-TT were cultured at RPMI containing 15 bovine calf serum (Hyclon™ of Thermo™) and supplemented with 2 mM L-Glutamine. The cells were grown at a density of 5×10^4 cells/100 μL/well in duplicate in 96-well plates for one day and treated with different concentrations of test compound. Cell viability for MTC-TT two days after drug treatment was measured by Cell Titer 96 Aqueous One Solution Reagent (Promega™) according to the manufacture instructions. The IC50 value of test compound was calculated at Gradpad Prism 5 unless specified otherwise.
# truncated human FAK = target: T4, truncated human FAK (Homo sapiens, UniProt Q05397); test: Inhibition of enzymatic kinase activity (LANCE Ulight); assay type: biochemical; settings: at 1 μM concentration; for inhibition at 1 µM: read-out: FAK percentage inhibition
# T4 construct: truncated human FAK, RET, FLT3, JAK2, and LRRK2 (CARNA BIOSCIENCES™); purchased Carna Biosciences
# Method: as §1, §2
# human ZAP70 = target: T5, human ZAP70 (Homo sapiens, UniProt P43403); test: as above; assay type: biochemical; settings: at 1 μM concentration; for inhibition at 1 µM: read-out: ZAP70 percentage inhibition
# T5 construct: Purified full-length human SYK, ZAP70, PIM1, PYK2; purchased Carna Biosciences
# T5 sequence (P43403 1-619): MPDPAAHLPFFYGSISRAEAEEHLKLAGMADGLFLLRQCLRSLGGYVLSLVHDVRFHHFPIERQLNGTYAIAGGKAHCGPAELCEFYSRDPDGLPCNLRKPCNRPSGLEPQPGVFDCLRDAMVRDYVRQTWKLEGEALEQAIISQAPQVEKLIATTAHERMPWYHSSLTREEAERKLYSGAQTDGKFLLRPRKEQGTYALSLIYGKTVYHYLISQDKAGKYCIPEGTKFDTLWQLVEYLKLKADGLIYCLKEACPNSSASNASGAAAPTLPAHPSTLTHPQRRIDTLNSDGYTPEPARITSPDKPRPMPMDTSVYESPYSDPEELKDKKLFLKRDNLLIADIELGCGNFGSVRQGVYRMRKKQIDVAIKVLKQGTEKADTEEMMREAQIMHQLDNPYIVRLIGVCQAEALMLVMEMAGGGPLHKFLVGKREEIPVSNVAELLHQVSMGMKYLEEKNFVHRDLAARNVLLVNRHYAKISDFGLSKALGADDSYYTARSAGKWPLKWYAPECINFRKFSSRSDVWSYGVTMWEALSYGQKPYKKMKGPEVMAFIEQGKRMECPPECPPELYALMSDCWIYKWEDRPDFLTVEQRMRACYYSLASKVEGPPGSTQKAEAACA
# Method: as §1, §2
# PYK2 = PYK2 (Homo sapiens, UniProt Q14289); test: as above; assay type: biochemical; design: Purified full-length human SYK, ZAP70, PIM1, PYK2; purchased Carna Biosciences; settings: at 1 μM concentration; for inhibition at 1 µM: read-out: PYK2 percentage inhibition
# Method: as §1, §2
# SYK = SYK (Homo sapiens, UniProt P43405); test: as above; assay type: biochemical; design: Purified full-length human SYK, ZAP70, PIM1, PYK2; purchased Carna Biosciences; settings: at 1 μM concentration; for inhibition at 1 µM: read-out: SYK percentage inhibition
# Method: as §1, §2
# human PIM1 = target: T6, human PIM1 (Homo sapiens, UniProt P11309); test: as above; assay type: biochemical; settings: at 1 μM concentration; for inhibition at 1 µM: read-out: PIM1 percentage inhibition
# T6 construct: Purified full-length human SYK, ZAP70, PIM1, PYK2; purchased Carna Biosciences
# Method: as §1
# as §2, with “phosphorylation. […] Substrate phosphorylation was a function of the 665 nm emission measured following the addition of the detection solution and 50 minutes of incubation.” for “phosphorylation.”
# [2] = test system: HEL cells expressing human JAK2 V617F; test: Cell viability assay: JAK2 inhibition; assay type: cell-based; settings: Homo sapiens, 72-hour incubation
# Method: Compounds of the invention were tested for cell viability effect on HEL cells. For cell viability assay, HEL cells expressing human JAK2 V617F were obtained from the American Type Culture Collection (ATCC, Manassas, Va.). This cell line was maintained with an Roswell Park Memorial Institute (RPMI) medium (HyClone™) containing 10 bovine calf serum (BCS; Hyclone™) supplemented iron. The HEL cells were seeded at 2×10^4 cells in 96 well culture plates, and serially diluted compound was then added. After a 72-hour incubation period at 37° C., Cell viability was measured using the ATPLite 1 step assay (Perkin-Elmer™) that is based on the quantification of ATP from viable cells. CellTiter Aqueous assay (Promega™) was also performed in parallel as an orthogonal assay. IC50 values were calculated using nonlinear regression and defined as the concentration needed for a 50 reduction in luminescence or absorbance treated versus untreated control cells (Prism™ Software).
# T6 sequence (P11309 whole entry): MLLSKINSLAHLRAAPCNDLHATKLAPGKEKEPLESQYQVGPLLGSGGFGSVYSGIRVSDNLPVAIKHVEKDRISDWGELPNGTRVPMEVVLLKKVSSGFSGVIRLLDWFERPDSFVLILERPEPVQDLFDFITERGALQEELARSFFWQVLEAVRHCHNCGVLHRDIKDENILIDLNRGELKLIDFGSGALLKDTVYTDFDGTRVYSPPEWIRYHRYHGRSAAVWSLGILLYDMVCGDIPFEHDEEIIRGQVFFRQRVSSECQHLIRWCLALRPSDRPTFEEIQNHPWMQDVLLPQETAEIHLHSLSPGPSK
# PYK2, sequence (Q14289 whole entry): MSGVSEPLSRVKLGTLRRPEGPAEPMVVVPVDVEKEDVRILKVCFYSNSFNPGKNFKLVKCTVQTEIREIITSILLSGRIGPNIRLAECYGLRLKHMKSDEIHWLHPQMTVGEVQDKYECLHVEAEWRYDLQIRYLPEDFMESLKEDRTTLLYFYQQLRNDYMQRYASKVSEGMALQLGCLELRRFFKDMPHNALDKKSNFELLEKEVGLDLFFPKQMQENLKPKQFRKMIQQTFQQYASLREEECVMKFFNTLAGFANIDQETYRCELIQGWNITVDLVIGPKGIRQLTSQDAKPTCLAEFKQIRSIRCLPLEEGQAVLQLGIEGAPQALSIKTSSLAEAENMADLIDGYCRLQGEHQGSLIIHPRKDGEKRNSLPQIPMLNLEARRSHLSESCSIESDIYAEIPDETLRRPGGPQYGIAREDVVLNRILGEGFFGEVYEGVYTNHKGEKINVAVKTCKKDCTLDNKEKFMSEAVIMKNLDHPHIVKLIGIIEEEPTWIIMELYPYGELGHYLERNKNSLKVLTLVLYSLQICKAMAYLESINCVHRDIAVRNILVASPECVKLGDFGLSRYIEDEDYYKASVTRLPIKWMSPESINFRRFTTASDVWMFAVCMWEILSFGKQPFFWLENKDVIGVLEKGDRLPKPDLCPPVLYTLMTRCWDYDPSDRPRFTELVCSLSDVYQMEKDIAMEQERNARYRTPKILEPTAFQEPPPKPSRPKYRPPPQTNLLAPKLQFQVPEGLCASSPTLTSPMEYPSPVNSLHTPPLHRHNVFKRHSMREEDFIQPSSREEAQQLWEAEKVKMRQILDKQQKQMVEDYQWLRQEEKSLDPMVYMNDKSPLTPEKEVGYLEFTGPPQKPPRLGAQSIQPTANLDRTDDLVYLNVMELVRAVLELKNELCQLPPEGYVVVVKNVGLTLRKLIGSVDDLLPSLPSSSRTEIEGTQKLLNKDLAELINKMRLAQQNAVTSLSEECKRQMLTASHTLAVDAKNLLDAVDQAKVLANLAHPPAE
# T4 sequence (Q05397 376-1052 limits assumed): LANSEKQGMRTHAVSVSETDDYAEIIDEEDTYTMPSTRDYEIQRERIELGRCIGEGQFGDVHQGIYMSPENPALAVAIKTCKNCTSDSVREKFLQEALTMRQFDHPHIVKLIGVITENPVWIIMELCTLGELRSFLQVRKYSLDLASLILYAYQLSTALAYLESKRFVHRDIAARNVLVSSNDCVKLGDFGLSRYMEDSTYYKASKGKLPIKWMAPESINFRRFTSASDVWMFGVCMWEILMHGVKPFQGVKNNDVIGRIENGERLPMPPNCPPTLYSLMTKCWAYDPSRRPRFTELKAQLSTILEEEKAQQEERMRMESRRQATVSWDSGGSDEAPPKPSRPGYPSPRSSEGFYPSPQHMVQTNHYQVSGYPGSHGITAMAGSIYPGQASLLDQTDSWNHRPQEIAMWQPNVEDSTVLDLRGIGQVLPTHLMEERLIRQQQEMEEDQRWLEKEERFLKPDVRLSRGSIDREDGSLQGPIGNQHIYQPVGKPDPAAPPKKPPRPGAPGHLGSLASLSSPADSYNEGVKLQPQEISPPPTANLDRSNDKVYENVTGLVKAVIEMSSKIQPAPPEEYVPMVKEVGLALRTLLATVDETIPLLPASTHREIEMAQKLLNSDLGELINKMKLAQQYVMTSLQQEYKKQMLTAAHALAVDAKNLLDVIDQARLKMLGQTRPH
# T3 sequence (O60674 826-1132 limits assumed): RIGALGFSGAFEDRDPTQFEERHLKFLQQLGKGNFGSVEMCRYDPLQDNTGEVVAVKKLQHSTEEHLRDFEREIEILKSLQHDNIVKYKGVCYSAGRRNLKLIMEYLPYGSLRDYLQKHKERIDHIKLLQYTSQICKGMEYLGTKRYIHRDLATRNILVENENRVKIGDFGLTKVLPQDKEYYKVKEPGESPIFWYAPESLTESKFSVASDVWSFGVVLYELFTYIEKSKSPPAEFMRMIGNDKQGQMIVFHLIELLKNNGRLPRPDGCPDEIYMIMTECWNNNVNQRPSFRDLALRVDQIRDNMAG
IC50 ([1]; MV4-11),inhibition at 1 µM (truncated human FAK),inhibition at 1 µM (human ZAP70),inhibition at 1 µM (PYK2),inhibition at 1 µM (SYK),inhibition at 1 µM (human PIM1),Compound,IC50 (MTC-TT),further results
0.1 nM,,,,,,"Cl.O=c1[nH]ccc2nc(N[C@H]3CCNC3)nc(Nc3ccc(C(F)(F)F)cc3)c12 [Compound 8, (S)-2-(pyrrolidin-3-ylamino)-4-(4-(trifluoromethyl)phenylamino)pyrido[4,3-d]pyrimidin-5(6H)-one hydrochloride]",14 nM,IC50 (truncated human RET): 2.6 nM; IC50 (truncated human FLT3): 0.2 nM; IC50 (truncated human JAK2): 12.7 nM; inhibition level compared with Vandetinib and Sunitinib [1]: inhibition level greater than those exhibited by Vandetinib and Sunitinib; times higher inhibition in IC50 than Sunitinib and PKC-412 ([1]; MV4-11): 10-30 time; times higher inhibition in IC50 than Vandetanib and Sunitinib (MTC-TT; MTC-TT): 6 time; inhibition level compared with Vandetinib and Sunitinib (MTC-TT): inhibition level greater than those exhibited by Vandetinib and Sunitinib
,92.9%,54.6%,92.8%,95.7%,71.2%,"NC1CCN(c2nc(Nc3cccc(Br)c3)c3c(=O)[nH]ccc3n2)CC1 [Compound 84, 2-(4-aminopiperidin-1-yl)-4-(3-bromophenylamino)pyrido[4,3-d]pyrimidin-5(6H)-one hydrochloride]",,
,80.8%,49.3%,39.5%,95.1%,12.7%,"CS(=O)(=O)c1ccc(Nc2nc(N3CCC(O)CC3)nc3cc[nH]c(=O)c23)cc1 [Compound 126, 2-(4-hydroxypiperidin-1-yl)-4(4-(methylsulfonyl)phenylamino)pyrido[4,3d]pyrimidin-5(6H)-one]",,
0.1 nM,,,,,,"Cl.O=c1[nH]ccc2nc(N[C@H]3CCNC3)nc(Nc3ccc(N4CCOCC4)cc3)c12 [Compound 136, (S)-4-(4-morpholinophenylamino)-2-(pyrrolidin-3-ylamino)pyrido[4,3-d]pyrimidin-5(6H)-one hydrochloride]",33 nM,IC50 (truncated human RET): 1.3 nM; IC50 (truncated human FLT3): 0.1 nM; IC50 (truncated human JAK2): 3.9 nM; inhibition level compared with Vandetinib and Sunitinib [1]: inhibition level greater than those exhibited by Vandetinib and Sunitinib; inhibition level compared with Vandetinib and Sunitinib (MTC-TT): inhibition level greater than those exhibited by Vandetinib and Sunitinib
,4.9%,6.2%,1%,3%,7.3%,"Cn1ccc2nc(N3CCC(O)CC3)nc(Nc3cccc(C(F)(F)F)c3)c2c1=O [Compound 168, 2-(4-hydroxypiperidine-1-yl)-6-methyl-4-(3-(trifluoromethyl)phenylamino)pyrido[4,3-d]pyrimidin-5(6H)-one]",,
,,,,,,"CNC(=O)c1cc(Oc2ccc(NC(=O)Nc3ccc(Cl)c(C(F)(F)F)c3)cc2)ccn1 [Sorafenib, reference compound]",,IC50 [2]: > 1000 nM
3.8 nM,,,,,,"CCN(CC)CCNC(=O)c1c(C)[nH]c(/C=C2\C(=O)Nc3ccc(F)cc32)c1C [Sunitinib, reference compound]",117 nM,
,,,,,,"(2-((1R,2S)-2-aminocyclohexylamino)-4-(3-(trifluoromethyl)phenylamino)pyrido[4,3-d]pyrimidin-5(6H)-one with (2-((1S,2R)-2-aminocyclohexylamino)-4-(3-(trifluoromethyl)phenylamino)pyrido[4,3-d]pyrimidin-5(6H)-one [Compound 101]",,FAK percentage inhibition (truncated human FAK): 77%; ZAP70 percentage inhibition (human ZAP70): 45%; PYK2 percentage inhibition (PYK2): 85%; SYK percentage inhibition (SYK): 90%; PIM1 percentage inhibition (human PIM1): 61%
